This is an account of results in US20250100998A1, “PARP7 INHIBITORS” (Gilead Sciences, Inc., priority 2023, published 2025).

The test concerns STAT1 (phosphorylated at Tyr701) in NCI-H1373 cells. Description: Phospho-STAT1 (Tyr701) LANCE Ultra TR-FRET detection assay. To be noted: Homo sapiens, NCI-H1373, 48 h, induction of pSTAT1 in NCI-H1373 cells, 48 hours incubation; normalized to 10 uM positive control and DMSO; 4-parameter fit; read-out: NH1373 pSTAT1 EC50. Format: cell-based. As to the method:
Phospho-STAT1 (Tyr701 LANCE Ultra TR-FRET Detection Assay
LANCE Ultra phospho-STAT1 (Tyr701) kits are designed for the detection of phosphorylated STAT1 in cell lysates using a simple, homogeneous LANCE Ultra sandwich assay (Cat. #TRF4028M). This assay is intended for assessing compound induction of endogenous levels of cellular STAT1 (phosphorylated at Tyr701) in NCI-H1373 cells. The NCI-H1373 cells are cultured in RPMI 1640 media containing 10% heat inactivated FBS, GlutaMAX, 1% Penicillin-Streptomycin. An Echo acoustic liquid handler is used to transfer 60 nanoliters of compound dilutions using the Echo Qualified, 384-well polypropylene microplate clear flat bottom source plates into a Greiner (#781080) cell culture microplate. NCI-H1373 cells are seeded into these compound-spotted culture plates at 30,000 cells/well in a 60 uL volume in growth media. The plates are incubated in a 5% CO2 humidified incubator at 37° C. for 48 hours. […] Briefly, […] of supplemented lysis buffer is added to each well and allowed to shake for 1 hour at 400 rpm. Next, 5 ul of remixed antibody solutions (vol/vol) prepared in detection buffer are added to each well and allowed to incubate at room temperature overnight. After spinning the plate down at 300 rpm for 1 min, the plate is read on an EnVision plate reader set up for Eu3+ Cryptate and fluorescence emission is measured at two different wavelengths (665 nm and 620 nm). The HTRF ratio is then calculated ([…]) for each well to determine the amount of pSTAT1 in the cell lysate, and the data is then normalized to 10 uM (S)-5-((1-(3-oxo-3-(4-(5-(trifluoromethyl)pyrimidin-2-yl)piperazin-1-yl)propoxy)propan-2-yl)amino)-4-(trifluoromethyl)pyridazin-3(2H)-one positive and DMSO negative controls. The values were then plotted as a function of compound concentration and a 4-parameter fit was applied to derive the EC50 values.
Turning to `N#Cc1cnc(-c2cc3ccn(C[C@@H]4CCC[C@H](Nc5cn[nH]c(=O)c5C(F)(F)F)C4)c(=O)c3c(F)c2F)nc1` [Example 29, 2-(7,8-difluoro-1-oxo-2-(((1R,3S)-3-((6-oxo-5-(trifluoromethyl)-1,6-dihydropyridazin-4-yl)amino)cyclohexyl)methyl)-1,2-dihydroisoquinolin-6-yl)pyrimidine-5-carbonitrile], the half-maximal effective concentration (EC50) is 1.8 nM.

For the compound `CS(=O)(=O)c1cnc(-c2cc3ccn(C[C@@H]4CCC[C@H](Nc5cn[nH]c(=O)c5C(F)(F)F)C4)c(=O)c3cc2F)nc1` [Example 13, 7-fluoro-6-(5-(methylsulfonyl)pyrimidin-2-yl)-2-(((1R,3S)-3-((6-oxo-5-(trifluoromethyl)-1,6-dihydropyridazin-4-yl)amino)cyclohexyl)methyl)isoquinolin-1(2H)-one], the EC50 was 6.21 nM.

For `CC(O)(c1cnc(-c2cc3ccn(C[C@@H]4CCC[C@H](Nc5cn[nH]c(=O)c5C(F)(F)F)C4)c(=O)c3cc2F)nc1)C(F)F` (stereo partly drawn) [Example 27, 6-(5-(1,1-difluoro-2-hydroxypropan-2-yl)pyrimidin-2-yl)-7-fluoro-2-(((1R,3S)-3-((6-oxo-5-(trifluoromethyl)-1,6-dihydropyridazin-4-yl)amino)cyclohexyl)methyl)isoquinolin-1(2H)-one], the EC50 worked out at 16.8 nM.

As for `CC(C)(O)COc1cnc(-c2cc3ccn(C[C@@H]4CCC[C@H](Nc5cn[nH]c(=O)c5C(F)(F)F)C4)c(=O)c3c(F)c2F)nc1` [Example 16, 7,8-difluoro-6-(5-(2-hydroxy-2-methylpropoxy)pyrimidin-2-yl)-2-(((1R,3S)-3-((6-oxo-5-(trifluoromethyl)-1,6-dihydropyridazin-4-yl)amino)cyclohexyl)methyl)isoquinolin-1(2H)-one], the 50% effective concentration (EC50) was 31.3 nM.

As for `CC(F)(F)c1cnc(-c2cc3ccn(C[C@@H]4CCC[C@H](Nc5cn[nH]c(=O)c5C(F)(F)F)C4)c(=O)c3c(F)c2F)nc1` [Example 20, 6-(5-(1,1-difluoroethyl)pyrimidin-2-yl)-7,8-difluoro-2-(((1R,3S)-3-((6-oxo-5-(trifluoromethyl)-1,6-dihydropyridazin-4-yl)amino)cyclohexyl)methyl)isoquinolin-1(2H)-one], the EC50 was found to be 1.61 nM.

On to `[2H]C([2H])([2H])Oc1cnc(-c2cc3c(F)cn(C[C@@H]4CCC[C@H](Nc5cn[nH]c(=O)c5C(F)(F)F)C4)c(=O)c3cc2F)nc1` [Example 45, 4,7-difluoro-2-[[(1R,3S)-3-[[6-oxo-5-(trifluoromethyl)-1H-pyridazin-4-yl]amino]cyclohexyl]methyl]-6-[5-(trideuteriomethoxy)pyrimidin-2-yl]isoquinolin-1-one], for which the half-maximal effective concentration (EC50) came to 10.5 nM.

In the case of `CC(C)(O)c1cnc(-c2cc3c(cc2F)C(=O)N(C[C@@H]2CCC[C@H](Nc4cn[nH]c(=O)c4C(F)(F)F)C2)CC3)nc1` [Example 73, 7-fluoro-6-(5-(2-hydroxypropan-2-yl)pyrimidin-2-yl)-2-(((1R,3S)-3-((6-oxo-5-(trifluoromethyl)-1,6-dihydropyridazin-4-yl)amino)cyclohexyl)methyl)-3,4-dihydroisoquinolin-1(2H)-one], the half-maximal effective concentration (EC50) stood at 7.8 nM.

On to `CS(=O)(=O)c1cnc(-c2cc3c(F)cn(C[C@@H]4CCC[C@H](Nc5cn[nH]c(=O)c5C(F)(F)F)C4)c(=O)c3c(F)c2F)nc1` [Example 41], for which the 50% effective concentration (EC50) was determined as 3.25 nM.

As for `CC(C)(O)c1cnc(-c2cc3c(F)cn(C[C@@H]4CCC[C@H](Nc5cn[nH]c(=O)c5C(F)(F)F)C4)c(=O)c3cc2F)nc1` [Example 39], the concentration giving a half-maximal response (EC50) was 4.2 nM.

On to `O=c1[nH]ncc(N[C@H]2CCC[C@@H](Cn3ccc4cc(-c5ncc(OC(F)F)cn5)c(F)cc4c3=O)C2)c1C(F)(F)F` [Example 5, 6-(5-(difluoromethoxy)pyrimidin-2-yl)-7-fluoro-2-(((1R,3S)-3-((6-oxo-5-(trifluoromethyl)-1,6-dihydropyridazin-4-yl)amino)cyclohexyl)methyl)isoquinolin-1(2H)-one], for which the EC50 amounted to 4.74 nM.

For orientation: EC50 means the concentration giving half of the maximal effect.
